Entries after “also recorded” stand apart in the source; their conditions may differ.
Assays:
[1] = NMR titration repeated with acetylated peptide; format: binding; details: same conditions as for NH2-Ala-Ala-Phe-amide; N-terminus acetylated
Experimental: The concept is based on the observation that 18-crown-6 ether derivatives can associate with protonated amines such as amino groups present at the N-termini of peptides or proteins (Yeh et al 2009 J Am Soc Mass Spectrom 20:385-393). To determine the exchange rate of the interaction between N-termini of polypeptides and 18-crown-6 ethers, an NMR study was performed. A model peptide (NH2-Ala-Ala-Phe-amide) was used in combination with the 18-crown-6 analogue triaza-trioxo-crown ether (TTC-ether; FIG. 3). The model peptide was designed with an N-terminal Ala to easily determine the shift of the N-terminal Ala methyl group upon binding to the TTC-ether. Solutions of the peptide were prepared in D2O/D-acetonitrile (3 ml/1 ml) with 10 mM D-acetic acid. A concentration of 100 μM peptide was maintained and mixed with varying concentrations of the TTC-ether. […]
A 2D-TOCSY (Total Correlation Spectroscopy) spectrum allows the identification of the position of the two methyl groups of both Ala residues around 1.25 ppm and 1.43 ppm. […] In order to retrieve information about the binding of the crown ether with the peptide, a titration was performed with different concentrations of the TTC-ether after which the shifts for the Ala methyl groups was measured at high resolution. Indeed, Ala-methyl shifts were observed when different TTC-ether/peptide ratios are measured (FIG. 4A). […]

[2] = test system: peptide array [AA1][AA2]GGNNGG; experiment: Crown ether binding on PEPperPRINT peptide array (fluorescence intensity); details: crown ether 0.1 μg/μl in 0.1% triethanolamine in 50% ACN
Experimental: To study the binding of crown ethers to different peptides, a peptide array is used (PEPperPRINT array), containing an array of 400 peptides comprising peptides with all amino acid combinations at the first and second N-terminal position ([AA1][AA2]GGNNGG; four replicates of each peptide). After applying a fluorescently labeled crown ether (Cy5.5-dibenzo-18-crown-6), the relative affinity for all peptide substrates is determined by the fluorescence intensity on each peptide spot. The crown ether was applied on the peptide array at a concentration of 0.1 μg/μl in 0.1% triethanolamine in 50% ACN. After binding the array was washed two times for 10 sec using the same buffer. Finally, the fluorescence intensity was measured using a LI-COR Odyssey Imaging system. […] The large hydrophobic side chains of the second amino acid likely interact with the hydrophobic regions of the crown ether (crown ether benzene rings and/or cy5.5 fluorophore).

Substance	interaction with TTC-ether (NMR shifts) [1]	relative binding (fluorescence intensity), variable second amino acid ([2]; peptides with N-terminal glycine)	relative binding (fluorescence intensity), variable N-terminal amino acid ([2]; peptides with leucine at the second position)
Acetyl-Ala-Ala-Phe-amide	did not measure any noticeable interaction	–	–
Cy5.5-dibenzo-18-crown-6	–	strongest on the peptides GFGGNNGG, GLGGNNGG, GYGGNNGG, GIGGNNGG, GKGGNNGG and GWGGNNGG	strongest on N-terminal glycine; also recorded: weakest on N-terminal proline

Reference: US20220214354A1, “MEANS AND METHODS FOR SINGLE MOLECULE PEPTIDE SEQUENCING” (VIB VZW, priority 2019, published 2022)
